What was measured:
Type in all cases: in vivo
[1] = Acute toxicity, testing in the rat; settings: in vivo, in rape oil, per os and intraperitoneal administration
From the text: (§1) Toxicity tests carried out in mice and rats gave the following results for acute toxicity:
(§2) Vitamin A acid ethyl amide in rape oil (per os and intraperitoneal administration)

rat = assay: Acute toxicity, testing in the rat; settings: in rape oil, per os and intraperitoneal administration
From the text: as §1, §2

[2] = Acute toxicity, testing in the mouse; settings: in vivo, in rape oil; for LD50 at 240 h: 10 days
From the text: as §1
(§3) 1. Vitamin A acid ethyl amide in rape oil (per os and intraperitoneal administration)
(§4) 2. Vitamin A acid ethanol amide in rape oil (intraperitoneal administration)
(§5) 3. Vitamin A acid diethyl amide, vitamin A acid n-butyl amide, vitamin A acid phenyl amide, vitamin A acid isopropyl amide, or vitamin A acid methyl amide in rape oil (intraperitoneal administration)

mouse = assay: Acute toxicity, testing in the mouse; settings: in rape oil
From the text: as §1, §3, §4, §5

[3] = per os and intraperitoneal administration
[4] = per os and intraperitoneal administration, 20 days
[5] = per os and intraperitoneal administration, 24 hrs.
[6] = per os and intraperitoneal administration, 10 days
[7] = ip, intraperitoneal administration
[8] = intraperitoneal administration, 24 hrs.
[9] = intraperitoneal administration, 10 days

| SMILES | LD50 at 24 h [2, 7] | LD50 at 240 h [2, 7] | LD10 (mouse; [8]) | LD90 (mouse; [8]) | LD10 (mouse; [9]) | LD90 (mouse; [9]) | other results |
| --- | --- | --- | --- | --- | --- | --- | --- |
| CCNC(=O)/C=C(C)/C=C/C=C(C)/C=C/C1=C(C)CCCC1(C)C [Vitamin A acid ethyl amide, vitamin A acid monoethyl amide] | – | – | – | – | – | – | LD50 at 24 h ([1]; 24 hrs.): > 4000 mg/kg; LD50 at 240 h ([1]; 10 days): > 4000 mg/kg; LD10 (rat; 24 hrs.): > 4000 mg/kg; LD90 (rat; 24 hrs.): > 4000 mg/kg; LD10 (rat; 10 days): > 4000 mg/kg; LD90 (rat; 10 days): > 4000 mg/kg; LD50 at 24 h [2, 3]: > 4000 mg/kg; LD50 at 240 h [2, 3]: > 4000 mg/kg; LD50 at 480 h [2, 4]: > 4000 mg/kg; LD10 (mouse; [5]): > 4000 mg/kg; LD90 (mouse; [5]): > 4000 mg/kg; LD10 (mouse; [6]): > 4000 mg/kg; LD90 (mouse; [6]): > 4000 mg/kg; LD10 (mouse; [4]): > 4000 mg/kg; LD90 (mouse; [4]): > 4000 mg/kg |
| CC1=C(/C=C/C(C)=C/C=C/C(C)=C/C(=O)NC(C)C)C(C)(C)CCC1 [vitamin A acid isopropyl amide] | > 4000 mg/kg | > 4000 mg/kg | > 4000 mg/kg | > 4000 mg/kg | > 4000 mg/kg | > 4000 mg/kg | – |
| CCN(CC)C(=O)/C=C(C)/C=C/C=C(C)/C=C/C1=C(C)CCCC1(C)C [Vitamin A acid diethyl amide, vitamin A acid diethyl amide] | > 4000 mg/kg | > 4000 mg/kg | > 4000 mg/kg | > 4000 mg/kg | > 4000 mg/kg | > 4000 mg/kg | – |
| CC1=C(/C=C/C(C)=C/C=C/C(C)=C/C(=O)NCCO)C(C)(C)CCC1 [Vitamin A acid ethanol amide, vitamin A acid ethanol amide] | > 4000 mg/kg | 1000 mg/kg | > 4000 mg/kg | > 4000 mg/kg | 710 mg/kg | 1400 mg/kg | – |
| CNC(=O)/C=C(C)/C=C/C=C(C)/C=C/C1=C(C)CCCC1(C)C [vitamin A acid methyl amide] | > 4000 mg/kg | > 4000 mg/kg | > 4000 mg/kg | > 4000 mg/kg | > 4000 mg/kg | > 4000 mg/kg | – |
| CC1=C(/C=C/C(C)=C/C=C/C(C)=C/C(=O)Nc2ccccc2)C(C)(C)CCC1 [vitamin A acid phenyl amide] | > 4000 mg/kg | > 4000 mg/kg | > 4000 mg/kg | > 4000 mg/kg | > 4000 mg/kg | > 4000 mg/kg | – |
| CCCCNC(=O)/C=C(C)/C=C/C=C(C)/C=C/C1=C(C)CCCC1(C)C [vitamin A acid n-butyl amide] | > 4000 mg/kg | > 4000 mg/kg | > 4000 mg/kg | > 4000 mg/kg | > 4000 mg/kg | > 4000 mg/kg | – |

Source: patent publication US3950418A, “Vitamin A acid amides” (Hoffmann-La Roche Inc., priority 1970, dated 1976)
